The source of these data is patent US5571807A, “1,5 benzothiazepinone dervatives their preparation and pharmaceutical use” (Istituto Luso Farmaco d'Italia S.p.A., priority 1990, dated 1996).

The target in one series is rabbit isolated atrium (Oryctolagus cuniculus, UniProt P15381). The series is described as follows: cell-based. As to conditions: inhibition of tonic contraction; read-out: rabbit isolated atrium (pA2) (converted).
The nature of series [1]: Pharmacokinetic studies in the conscious incannulated rat. Conditions: in vivo, po, 50 mg/kg/os, read-out: pharmacokinetics in the rat t 1/2.
The target of series [2] is 3H-diltiazem binding sites in the cardiac tissue (Homo sapiens, UniProt Q13936). In words: biochemical. As to conditions: displacement of 3H-diltiazem, read-out: receptorial binding (pIC50) (converted).
3H-diltiazem binding sites in the cardiac tissue, sequence (Q13936 whole entry): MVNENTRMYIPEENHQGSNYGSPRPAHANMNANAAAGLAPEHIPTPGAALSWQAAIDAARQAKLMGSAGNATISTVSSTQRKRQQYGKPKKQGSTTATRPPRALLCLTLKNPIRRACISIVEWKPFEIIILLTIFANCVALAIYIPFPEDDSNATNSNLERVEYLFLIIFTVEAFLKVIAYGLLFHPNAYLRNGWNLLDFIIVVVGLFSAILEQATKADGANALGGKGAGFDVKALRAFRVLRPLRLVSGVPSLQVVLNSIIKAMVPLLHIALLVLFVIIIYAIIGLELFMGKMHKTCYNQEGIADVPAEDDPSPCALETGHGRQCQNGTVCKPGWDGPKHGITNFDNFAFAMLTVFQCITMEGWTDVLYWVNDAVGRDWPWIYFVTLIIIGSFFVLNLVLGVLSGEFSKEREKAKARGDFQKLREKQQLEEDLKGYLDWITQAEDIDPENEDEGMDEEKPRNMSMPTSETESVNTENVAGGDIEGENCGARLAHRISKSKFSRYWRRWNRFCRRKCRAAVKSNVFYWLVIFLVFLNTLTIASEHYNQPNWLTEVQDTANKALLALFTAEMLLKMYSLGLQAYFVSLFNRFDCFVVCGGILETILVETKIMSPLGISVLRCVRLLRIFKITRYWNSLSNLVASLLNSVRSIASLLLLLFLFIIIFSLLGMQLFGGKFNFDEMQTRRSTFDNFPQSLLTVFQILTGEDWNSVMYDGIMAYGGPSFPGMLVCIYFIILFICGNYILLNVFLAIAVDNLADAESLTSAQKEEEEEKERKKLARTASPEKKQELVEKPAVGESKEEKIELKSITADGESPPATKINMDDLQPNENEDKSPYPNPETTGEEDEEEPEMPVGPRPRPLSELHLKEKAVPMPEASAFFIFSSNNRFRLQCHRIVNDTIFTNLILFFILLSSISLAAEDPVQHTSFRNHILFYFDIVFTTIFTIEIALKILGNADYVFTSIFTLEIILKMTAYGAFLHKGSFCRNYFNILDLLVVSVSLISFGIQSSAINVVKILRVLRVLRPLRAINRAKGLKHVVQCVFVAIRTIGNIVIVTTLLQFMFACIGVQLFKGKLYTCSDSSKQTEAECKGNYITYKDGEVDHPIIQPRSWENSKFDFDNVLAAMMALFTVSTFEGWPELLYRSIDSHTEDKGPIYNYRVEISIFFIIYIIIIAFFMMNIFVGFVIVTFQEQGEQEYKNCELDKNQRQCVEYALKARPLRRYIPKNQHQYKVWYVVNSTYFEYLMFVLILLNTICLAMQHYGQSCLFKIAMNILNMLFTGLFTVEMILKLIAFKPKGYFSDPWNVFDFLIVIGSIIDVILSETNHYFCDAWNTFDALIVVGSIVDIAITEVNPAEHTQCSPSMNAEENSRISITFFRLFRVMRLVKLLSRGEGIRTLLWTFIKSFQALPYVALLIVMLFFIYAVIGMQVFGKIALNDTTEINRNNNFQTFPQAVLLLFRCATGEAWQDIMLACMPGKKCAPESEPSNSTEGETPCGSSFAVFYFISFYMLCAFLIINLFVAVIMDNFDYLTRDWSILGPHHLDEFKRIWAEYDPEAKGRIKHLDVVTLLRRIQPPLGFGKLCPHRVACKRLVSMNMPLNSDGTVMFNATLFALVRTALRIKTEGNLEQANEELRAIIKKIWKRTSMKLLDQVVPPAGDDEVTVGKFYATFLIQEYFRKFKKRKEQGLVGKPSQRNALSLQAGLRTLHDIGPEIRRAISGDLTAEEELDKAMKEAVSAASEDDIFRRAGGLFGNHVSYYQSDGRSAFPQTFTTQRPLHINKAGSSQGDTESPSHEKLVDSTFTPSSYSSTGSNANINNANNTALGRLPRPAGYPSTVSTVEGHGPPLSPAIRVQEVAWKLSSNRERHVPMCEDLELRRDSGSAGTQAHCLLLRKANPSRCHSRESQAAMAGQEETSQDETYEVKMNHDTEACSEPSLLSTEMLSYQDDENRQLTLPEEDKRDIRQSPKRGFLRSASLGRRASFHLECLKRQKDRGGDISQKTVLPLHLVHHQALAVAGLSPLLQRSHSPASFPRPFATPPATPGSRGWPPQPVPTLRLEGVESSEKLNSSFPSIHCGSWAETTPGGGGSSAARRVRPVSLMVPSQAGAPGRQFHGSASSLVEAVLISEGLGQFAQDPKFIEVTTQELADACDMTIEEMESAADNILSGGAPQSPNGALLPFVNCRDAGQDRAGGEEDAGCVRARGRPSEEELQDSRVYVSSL
3H-diltiazem binding sites in the cardiac tissue, sequence (Q08289 whole entry partner): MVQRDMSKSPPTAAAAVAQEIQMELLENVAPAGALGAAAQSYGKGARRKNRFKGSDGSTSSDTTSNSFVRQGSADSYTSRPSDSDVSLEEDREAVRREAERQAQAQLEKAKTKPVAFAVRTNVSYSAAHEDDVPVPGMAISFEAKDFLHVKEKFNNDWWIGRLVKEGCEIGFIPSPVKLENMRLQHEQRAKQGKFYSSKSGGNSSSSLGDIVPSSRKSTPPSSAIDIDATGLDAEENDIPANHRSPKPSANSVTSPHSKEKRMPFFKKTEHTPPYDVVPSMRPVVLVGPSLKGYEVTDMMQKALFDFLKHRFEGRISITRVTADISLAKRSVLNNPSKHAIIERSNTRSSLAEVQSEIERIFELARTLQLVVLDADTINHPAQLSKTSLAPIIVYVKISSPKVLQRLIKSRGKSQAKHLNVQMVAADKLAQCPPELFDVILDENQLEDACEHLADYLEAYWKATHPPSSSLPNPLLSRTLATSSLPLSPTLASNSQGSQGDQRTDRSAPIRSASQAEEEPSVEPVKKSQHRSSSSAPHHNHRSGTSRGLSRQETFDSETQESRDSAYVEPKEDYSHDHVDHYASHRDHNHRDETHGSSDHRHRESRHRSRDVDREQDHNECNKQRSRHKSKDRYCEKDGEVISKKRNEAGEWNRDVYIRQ
3H-diltiazem binding sites in the cardiac tissue, sequence (P54289 25-957 partner limits assumed): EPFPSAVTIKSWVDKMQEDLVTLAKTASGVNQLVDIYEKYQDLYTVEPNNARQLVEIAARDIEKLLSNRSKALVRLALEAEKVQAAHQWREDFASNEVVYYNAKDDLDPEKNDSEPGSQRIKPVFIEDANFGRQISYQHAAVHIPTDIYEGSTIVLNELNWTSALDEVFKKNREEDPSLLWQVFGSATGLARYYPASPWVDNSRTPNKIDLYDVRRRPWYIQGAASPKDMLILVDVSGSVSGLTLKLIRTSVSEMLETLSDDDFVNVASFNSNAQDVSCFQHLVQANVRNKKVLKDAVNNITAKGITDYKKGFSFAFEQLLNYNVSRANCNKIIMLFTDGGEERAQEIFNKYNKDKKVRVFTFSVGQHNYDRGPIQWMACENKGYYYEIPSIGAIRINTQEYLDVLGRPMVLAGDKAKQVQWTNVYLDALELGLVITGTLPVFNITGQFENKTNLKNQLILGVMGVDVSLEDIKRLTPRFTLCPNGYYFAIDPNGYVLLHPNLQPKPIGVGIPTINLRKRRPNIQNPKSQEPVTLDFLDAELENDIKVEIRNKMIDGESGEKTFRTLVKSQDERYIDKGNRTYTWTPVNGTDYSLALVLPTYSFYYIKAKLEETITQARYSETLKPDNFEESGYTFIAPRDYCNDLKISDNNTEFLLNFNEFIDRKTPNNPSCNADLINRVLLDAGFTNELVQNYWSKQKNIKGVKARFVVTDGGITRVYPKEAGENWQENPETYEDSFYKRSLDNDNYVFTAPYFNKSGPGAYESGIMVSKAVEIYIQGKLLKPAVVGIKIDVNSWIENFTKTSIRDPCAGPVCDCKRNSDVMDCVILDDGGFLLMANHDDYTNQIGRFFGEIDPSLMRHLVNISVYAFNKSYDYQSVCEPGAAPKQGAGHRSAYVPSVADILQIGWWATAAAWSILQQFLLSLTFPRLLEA
3H-diltiazem binding sites in the cardiac tissue, sequence (P54289 958-1103 partner limits assumed): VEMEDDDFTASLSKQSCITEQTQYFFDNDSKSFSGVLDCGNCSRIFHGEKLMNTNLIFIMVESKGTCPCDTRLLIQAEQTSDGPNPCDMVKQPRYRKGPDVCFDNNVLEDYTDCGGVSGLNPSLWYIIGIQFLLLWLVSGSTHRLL
Series [3] concerns vasopressine-induced angina in the rat. The series is described as follows: Vasopressine-induced angina in the rat. As to conditions: for ED50: iv, read-out: angina vasopressine test rat (iv) ED50. In kind it is in vivo.
For series [4] the following is noted: humans; cited from earlier work.

Where a name gives a salt, the structure may show the parent alone.

In the case of `COc1ccc([C@@H]2Sc3ccccc3N(CC(C)CN(C)C)C(=O)[C@@H]2OC(C)=O)cc1.O=C(O)C(=O)O` (single isomer, unassigned; diastereoisomer b) [Compound B, Cis(+)-3-acetyloxy-2,3-dihydro-5-(2-methyl-3-dimethylaminopropyl)-2-(4-methoxyphenyl)-1,5-benzothiazepin-4(5H)-one oxalate (diastereoisomer B)], on rabbit isolated atrium, the Kb was 63.1 nM. For the same compound, the half-life in series [1] was found to be 1.18 h. For the same compound, the IC50 in series [2] is 30.2 nM. For the same compound, in series [3], the “angina vasopressine test rat (iv) duration” value is 72 min and the ED50 was 0.54 mg/kg.
With `COc1ccc([C@@H]2Sc3ccccc3N(CCN(C)C(C)C)C(=O)[C@@H]2OC(C)=O)cc1` [Compound A, Cis(+)-3-acetyloxy-2,3-dihydro-5-(2-N-isopropyl-N-methylaminoethyl)-2-(4-methoxyphenyl)-1,5-benzothiazepin-4(5H)-one hydrobromide], the Kb at rabbit isolated atrium was 50.1 nM. In addition, the half-life in series [1] amounted to 1.53 h. In addition, the IC50 in series [2] is 64.6 nM. Further, in series [3], the “angina vasopressine test rat (iv) duration” value turned out to be 78 min and the ED50 was 0.49 mg/kg.
Take `COc1ccc([C@@H]2Sc3ccccc3N(CCN(C)C)C(=O)[C@@H]2OC(C)=O)cc1` [Diltiazem, reference compound]: the elimination half-life result in series [4] is “short elimination half-life”. In series [1], the half-life is 0.95 h. Besides, the 50% effective dose (ED50) in series [3] stood at 0.45 mg/kg.
